Results published in patent publication US20090068146A1, “DIARYL UREAS AND COMBINATIONS” (priority 2005, published 2009).

melting point [°C] | Structure (SMILES)
147 to 151 | CNC(=O)c1cc(Oc2ccc(NC(=O)Nc3ccc(Cl)c(C(F)(F)F)c3)c(Cl)c2)ccn1 [Entry 49, {4-[3-chloro-4-({[4-chloro-3-(trifluoromethyl)phenyl]amino}carbonylamino)phenoxy](2-pyridyl)}-N-methylcarboxamide]
217 to 219 | CNC(=O)c1cc(Oc2ccc(NC(=O)Nc3ccc(Br)c(C(F)(F)F)c3)cc2Cl)ccn1 [Entry 87, {4-[4-({[4-bromo-3-(trifluoromethyl)phenyl]amino}carbonylamino)-2-chlorophenoxy](2-pyridyl)}-N-methylcarboxamide]
244 to 245 | CNC(=O)c1cc(Oc2ccc(NC(=O)Nc3cc(C(F)(F)F)c(Cl)cc3OC)c(Cl)c2)ccn1 [Entry 96, N-[4-chloro-2-methoxy-5-(trifluoromethyl)phenyl]({2-chloro-4-[2-(N-methylcarbamoyl)(4-pyridyloxy)]phenyl}amino)carboxamide]
220 to 221 | CNC(=O)c1cc(Oc2ccc(NC(=O)Nc3cc(C(F)(F)F)c(Cl)cc3OC)cc2Cl)ccn1 [Entry 97, N-[4-chloro-2-methoxy-5-(trifluoromethyl)phenyl]({3-chloro-4-[2-(N-methylcarbamoyl)(4-pyridyloxy)]phenyl}amino)carboxamide]
140 to 144 | CNC(=O)c1cc(Oc2ccc(NC(=O)Nc3cc(C(F)(F)F)c(Cl)cc3OC)cc2)ccn1 [Entry 95, N-[4-chloro-2-methoxy-5-(trifluoromethyl)phenyl]({4-[2-(N-methylcarbamoyl)(4-pyridyloxy)]phenyl}amino)carboxamide]
183 to 184 | CCNC(=O)c1cc(Oc2ccc(NC(=O)Nc3ccc(Br)c(C(F)(F)F)c3)cc2)ccn1 [Entry 88, N-[4-bromo-3-(trifluoromethyl)phenyl]({4-[2-(N-ethylcarbamoyl)(4-pyridyloxy)]phenyl}amino)carboxamide]
187 to 189 | CCNC(=O)c1cc(Oc2ccc(NC(=O)Nc3ccc(Cl)c(C(F)(F)F)c3)cc2)ccn1 [Entry 51, N-[4-chloro-3-(trifluoromethyl)phenyl]({4-[2-(N-ethylcarbamoyl)(4-pyridyloxy)]phenyl}amino)carboxamide]
180 to 181 | CCNC(=O)c1cc(Oc2ccc(NC(=O)Nc3cc(C(F)(F)F)c(Cl)cc3OC)cc2)ccn1 [Entry 99, N-[4-chloro-2-methoxy-5-(trifluoromethyl)phenyl]({4-[2-(N-ethylcarbamoyl)(4-pyridyloxy)]phenyl}amino)carboxamide]

Continued, molecule first:

Structure (SMILES) | melting point [°C]
CNC(=O)c1cc(Oc2ccc(NC(=O)Nc3cc(C(F)(F)F)ccc3OC)cc2Cl)ccn1 [Entry 20, ({3-chloro-4-[2-(N-methylcarbamoyl)(4-pyridyloxy)]phenyl}amino)-N-[2-methoxy-5-(trifluoromethyl)phenyl]carboxamide] | 214 to 216
CCNC(=O)c1cc(Oc2ccc(NC(=O)Nc3cc(C(F)(F)F)ccc3OC)cc2)ccn1 [Entry 19, ({4-[2-(N-ethylcarbamoyl)(4-pyridyloxy)]phenyl}amino)-N-[2-methoxy-5-(trifluoromethyl)phenyl]carboxamide] | 194 to 196
CNC(=O)c1cc(Sc2ccc(NC(=O)Nc3cc(C(F)(F)F)ccc3OC)cc2)ccn1 [Entry 27, N-[2-methoxy-5-(trifluoromethyl)phenyl]({4-[2-(N-methylcarbamoyl)(4-pyridylthio)]phenyl}amino)carboxamide] | 218 to 219
COc1ccc(C(F)(F)F)cc1NC(=O)Nc1ccc(Oc2ccnc(C(N)=O)c2)cc1 [Entry 14, 4-[4-({N-[2-methoxy-5-(trifluoromethyl)phenyl]carbamoyl}amino)phenoxy]pyridine-2-carboxamide] | 114 to 117
CNC(=O)c1cc(Oc2ccc(NC(=O)Nc3cc(C(F)(F)F)ccc3OC)c(C)c2)ccn1 [Entry 16, {4-[4-({N-[2-methoxy-5-(trifluoromethyl)phenyl]carbamoyl}amino)-3-methylphenoxy](2-pyridyl)}-N-methylcarboxamide] | 210 to 213
CNC(=O)c1cc(Oc2ccc(NC(=O)Nc3cc(C(F)(F)F)ccc3OC)c(Cl)c2)ccn1 [Entry 17, ({2-chloro-4-[2-(N-methylcarbamoyl)(4-pyridyloxy)]phenyl}amino)-N-[2-methoxy-5-(trifluoromethyl)phenyl]carboxamide] | 187 to 188
